# Test results taken from patent US20240132467A1, “BENZIMIDAZOLE DERIVATIVES FOR TREATING RESPIRATORY DISEASE” (TMEM16A Limited, priority 2020, published 2024).
# pEC50: −log10 of the molar value.
# Biological target: T1, human TMEM16A (TMEM16Aabc variant) (Homo sapiens, UniProt Q5XXA6, DEL476-501)
# T1 sequence (Q5XXA6 with tags, fused parts or gaps isoform Q5XXA6-5 DEL539-564): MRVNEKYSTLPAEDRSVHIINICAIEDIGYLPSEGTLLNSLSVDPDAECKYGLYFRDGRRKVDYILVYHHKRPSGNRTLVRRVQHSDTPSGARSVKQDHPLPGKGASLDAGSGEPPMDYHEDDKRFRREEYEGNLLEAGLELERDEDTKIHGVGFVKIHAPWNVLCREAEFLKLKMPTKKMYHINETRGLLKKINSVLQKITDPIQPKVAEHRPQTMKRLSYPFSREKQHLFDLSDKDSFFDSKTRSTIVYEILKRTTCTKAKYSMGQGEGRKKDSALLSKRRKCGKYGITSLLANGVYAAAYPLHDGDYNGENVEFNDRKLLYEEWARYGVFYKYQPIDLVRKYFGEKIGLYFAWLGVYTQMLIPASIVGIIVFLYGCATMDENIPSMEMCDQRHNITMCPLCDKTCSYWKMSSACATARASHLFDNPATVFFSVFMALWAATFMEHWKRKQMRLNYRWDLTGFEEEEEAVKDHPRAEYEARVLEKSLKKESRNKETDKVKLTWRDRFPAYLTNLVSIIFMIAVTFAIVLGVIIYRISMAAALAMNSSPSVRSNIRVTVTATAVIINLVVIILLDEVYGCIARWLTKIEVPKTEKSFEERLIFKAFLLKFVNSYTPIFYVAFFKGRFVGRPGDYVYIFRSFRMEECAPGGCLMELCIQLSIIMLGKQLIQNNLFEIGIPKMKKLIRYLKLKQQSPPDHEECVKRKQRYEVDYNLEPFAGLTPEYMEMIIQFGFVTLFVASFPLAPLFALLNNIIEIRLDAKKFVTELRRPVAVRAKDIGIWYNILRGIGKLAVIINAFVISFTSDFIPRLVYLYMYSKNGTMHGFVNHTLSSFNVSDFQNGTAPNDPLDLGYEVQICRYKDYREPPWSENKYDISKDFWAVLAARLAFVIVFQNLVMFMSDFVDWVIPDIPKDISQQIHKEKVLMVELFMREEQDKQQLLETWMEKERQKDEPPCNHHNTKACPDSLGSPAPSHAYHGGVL
# Test: Automated whole-cell patch clamp (Qpatch) TMEM16A potentiator assay in FRT cells stably expressing human TMEM16A
# Format: cell-based
# Conditions: for activation at 3.33 µM: 3.33 μM test compound, percentage increase of baseline TMEM16A current at +70 mV, intracellular calcium at EC20, read-out: % Potentiation @ 3.33 μM Avg; for pEC50: cumulative concentration response, 5 min per concentration, whole-cell patch clamp
# Method: Automated whole-cell patch clamp assay to detect TMEM16A activity in recombinant cells Cell culture and preparation
# Fisher rat thyroid (FRT) cells stably expressing human TMEM16A (TMEM16Aabc variant; Dr Luis Galietta, Insituto Giannina, Italy) were cultured in T-75 flasks in Hams F-12 media with Coon's modification (Sigma) supplemented with 10% (v/v) foetal bovine serum, penicillin-streptomycin (10,000 U/mL/10000 μg/mL), G-418 (750μg/mL), L-glutamine (2 mM) and sodium bicarbonate solution (7.5% v/v). At —90% confluence cells were harvested for experiments by detachment with a 2:1 (v/v) mixture of Detachin (BMS Biotechnology) and 0.25% (w/v) trypsin-EDTA. Cells were diluted to a density of 3.5-4.5×10^6 cells/mL with media consisting of CHO-S-SFM II (Sigma), 25 mM HEPES (Sigma) and Soy bean trypsin inhibitor (Sigma).
# Whole-Cell Patch Clamp Recording
# FRT-TMEM16A cells were whole-cell patch clamped using an automated planar patch clamp system (Qpatch, Sophion). Briefly, once high resistance (GOhm) seals were established between the cells and the planar recording array the patch was ruptured using suction pulses to establish the whole-cell recording configuration of the patch clamp technique. The assay employed the following solutions (all reagents Sigma):
# Intracellular solution (mM): N-methyl-D-glucamine 130, CaCl2 18.2, MgCl2 1, HEPES 10, EGTA 10, BAPTA 20, Mg-ATP 2, pH 7.25, 325mOsm with sucrose.
# Extracellular solution (mM): N-methyl-D-glucamine 130, CaCl2 2, MgCl2 1, HEPES 10, pH 7.3, 320 mOsm with sucrose.
# The intracellular solution buffers intracellular calcium at levels required to give —20% activation of the maximal TMEM16A mediated current (EC20 for calcium ions). Cells were voltage clamped at a holding potential of -70mV and a combined voltage step (to +70 mV)/ramp (−90 my to +90 mV) was applied at 0.05 Hz. After a period of current stabilisation test compounds, solubilised in 100% (v/v) DMSO and subsequently diluted into extracellular solution, were applied to generate a cumulative concentration response curve. Each concentration of test compound was incubated for 5 minutes before addition of the next concentration. After the final concentration was tested a supramaximal concentration of either a known active positive modulator or the TMEM16A inhibitor, CaCCinhA01 (Del La Fuente et al, 2008) was added to define the upper and lower limits of the assay.
# Compound activity was quantified by measuring the increase in current upon compound addition and expressing this as a percentage increase of baseline TMEM16A current level. Percentage increases in current were determined for each concentration and the data plotted as a function of concentration using either the Qpatch software or Graphpad Prism v6.05 providing the concentration which gave 50% of its maximal effect (EC50) and maximum efficacy (percentage of baseline increase).
# In FIG. 1, IBL equals baseline current, km equals the peak current during test compound concentration 1 incubation period and so on.
# Peak TMEM16A current at +70mV was plotted as a function of time over the assay period. Baseline current (IBL) was measured after a period of stabilisation. The increase in current for each compound addition was determined by taking the peak current during the incubation period and subtracting the current from the previous recording period and then expressing this as a percentage of the baseline current. For test compound concentration 1 in FIG. 1 this is:
# For each additional concentration tested the increase in current was determined by subtracting the current from the previous incubation period and normalising the baseline value—for test concentration 2 in FIG. 1 this is:
# The values for each test concentration were plotted as a cumulative function of concentration e.g. for test concentration two this would be the sum of the peak changes measured during concentration one plus concentration two.
SMILES,activation at 3.33 µM,pEC50
"O=C(CC1CCCCC1)Nc1ccc2[nH]c(Cc3ccccc3)nc2c1 [Example 1.1, N-(2-Benzyl-1H-benzimidazol-5-yl)-2-cyclohexyl-acetamide]",127%,6.60
"O=C(NCC1CCCCC1)c1ccc2[nH]c(Cc3ccccc3)nc2c1 [Example 1.2, 2-Benzyl-N-(cyclohexylmethyl)-1H-benzimidazole-5-carboxamide]",111%,6.65
"O=C(NCC12CC3CC(CC(C3)C1)C2)c1ccc2[nH]c(Cc3ccccc3)nc2c1 [Example 1.2.1, N-(1-Adamantylmethyl)-2-benzyl-1H-benzimidazole-5-carboxamide]",146%,6.36
"CC1(CNC(=O)c2ccc3[nH]c(Cc4ccccc4)nc3c2)CCCC1 [Example 1.2.2, 2-Benzyl-N-I(1-methylcyclopentyl)methylj-1H-benzimidazole-5-carboxamide]",144%,6.69
"C[C@@H](NC(=O)c1ccc2[nH]c(Cc3ccccc3)nc2c1)C1CCCCC1 [Example 1.2.3, 2-Benzyl-N-[(1R)-1-cyclohexylethyl]-1H-benzimidazole-5-carboxamide]",153%,6.10
"CCC(C)(C)c1nc2ccc(C(=O)NCC3CCCCCC3)cc2[nH]1 [Example 1.3, N-(Cycloheptylmethyl)-2-(1,1-dimethylpropyl)-3H-benzimidazole-5-carboxamide]",78.5%,6.25
"O=C(NCC1CCCCCC1)c1ccc2[nH]c(CC3(O)CCCCC3)nc2c1 [Example 1.3.1, N-(Cycloheptylmethyl)-2-[(1-hydroxycyclohexyl)methyl]-1H-benzimidazole-5-carboxamide]",135%,6.37
"O=C(NCC1CCCCCC1)c1ccc2[nH]c(C(CO)c3ccccc3)nc2c1 (stereo not drawn) [Example 1.3.2, N-(Cycloheptylmethyl)-2-(2-hydroxy-1-phenyl-ethyl)-1H-benzimidazole-5-carboxamide]",92.9%,6.24
"O=C(NCC1CCCCC1)c1ccc2nc(Cc3cccc(O)c3)[nH]c2c1 [Example 1.4, N-(Cyclohexylmethyl)-2-[(3-hydroxyphenyl)methyl]-3H-benzimidazole-5-carboxamide]",81.3%,6.42
"O=C(CC12CC3CC(CC(C3)C1)C2)Nc1ccc2[nH]c(Cc3cccc(O)c3)nc2c1 [Example 1.5, 2-(1-Adamantyl)-N-12-[(3-hydroxyphenyl)methyl]-1H-benzimidazol-5-yljacetamide]",162%,5.96
"CC1(CC(=O)Nc2ccc3[nH]c(Cc4cccc(O)c4)nc3c2)CCCCC1 [Example 1.5.1, N-[2-[(3-hydroxyphenyl)methyl]-1H-benzimidazol-5-yl]-2-(1-methylcyclohexyl) acetamide]",105%,6.65
"O=C(CC1CCCCCC1)Nc1ccc2[nH]c(Cc3cccc(O)c3)nc2c1 [Example 1.5.2, 2-Cycloheptyl-N-[2-[(3-hydroxyphenyl)methyl]-1H-benzimidazol-5-yl]acetamide]",136%,6.64
"O=C(CC1CCCCC1)Nc1ccc2[nH]c(Cc3cccc(O)c3)nc2c1 [Example 1.5.3, 2-Cyclohexyl-N-12-[(3-hydroxyphenyl)methyl]-1H-benzimidazol-5-yljacetamide]",93.1%,6.25
"O=C(CC12CC3CC(CC(C3)C1)C2)Nc1ccc2[nH]c(Cc3ccccc3)nc2c1 [Example 1.5.4, 2-(1-Adamantyl)-N-(2-benzyl-1H-benzimidazol-5-yl)acetamide]",219%,6.08
O=C(CC1(O)C2CC3CC(C2)CC1C3)Nc1ccc2[nH]c(Cc3ccccc3)nc2c1 (stereo not drawn) [Example 1.6],83.9%,6.64
"COc1cccc(Cc2nc3cc(NC(=O)CC4C5CC6CC(C5)CC4C6)ccc3[nH]2)c1 (stereo not drawn) [Example 1.7, 2-(2-Adamantyl)-N-12-[(3-methoxyphenyl)methyl]-1H-benzimidazol-5-yljacetamide]",136%,6.23
"C[C@@H](c1ccccc1)c1nc2cc(NC(=O)CC3C4CC5CC(C4)CC3C5)ccc2[nH]1 (stereo partly drawn) [Example 1.7.1, 2-(2-Adamantyl)-N[2-[(1 S)-1-phenylethyl]-1H-benzimidazol-5-yl]acetamide]",157%,6.56
"C[C@H](c1ccccc1)c1nc2cc(NC(=O)CC3C4CC5CC(C4)CC3C5)ccc2[nH]1 (stereo partly drawn) [Example 1.7.2, 2-(2-Adamantyl)-N[2-[(1R)-1-phenylethyl]-1H-benzimidazol-5-yl]acetamide]",143%,6.53
"CC(C)(C)OC(=O)NCc1nc2cc(NC(=O)CC34CC5CC(CC(C5)C3)C4)ccc2[nH]1 [Example 1.7.3, tert-Butyl N-[[5-[[2-(1-adamantyl)acetyl]amino]-1H-benzimidazol-2-yl]methyl]carbamate]",114%,5.95
"COc1ncccc1Cc1nc2cc(NC(=O)CC34CC5CC(CC(C5)C3)C4)ccc2[nH]1 [Example 1.7.4, 2-(1-Adamantyl)-N-12-[(2-methoxy-3-pyridyl)methyl]-1H-benzimidazol-5-yljacetamide]",148%,5.88
"O=C(CC1C2CC3CC(C2)CC1C3)Nc1ccc2[nH]c(Cc3cccc(O)c3)nc2c1 (stereo not drawn) [Example 1.8, 2-(2-Adamantyl)-N-12-[(3-hydroxyphenyl)methyl]-1H-benzimidazol-5-yljacetamide]",126%,6.59
"CC(C)(C)c1nc2cc(C(=O)NCc3cc(Cl)ccc3O)ccc2[nH]1 [Example 1.9, 2-tert-Butyl-N-[(5-chloro-2-hydroxy-phenyl)methyl]-1H-benzimidazole-5-carboxamide]",52.1%,–
"CC(C)(C)OC(=O)NCc1nc2cc(C(=O)NCC3CCCCCC3)ccc2[nH]1 [Example 1.10, tert-Butyl N-[[5-(cycloheptylmethylcarbamoyl)-1H-benzimidazol-2-yl]methyl] carbamate]",110%,6.05
